Source: ChEMBL document CHEMBL4024706 (Eur J Med Chem, 2017)

Key:
[1] = biological target: Serine/threonine-protein kinase RIO2 (Homo sapiens) (UniProt Q9BVS4); assay: Inhibition of wild-type human partial length RIOK2 (M1 to D313 residues) expressed in mammalian expression system assessed as residual activity at 1 uM by Kinomescan method relative to control
[2] = biological target: SRSF protein kinase 3 (Homo sapiens) (UniProt Q9UPE1); assay: Inhibition of wild-type human partial length SRPK3 (P41 to P567 residues) expressed in bacterial expression system assessed as residual activity at 1 uM by Kinomescan method relative to control
SRSF protein kinase 3 (Homo sapiens), sequence (Q9UPE1 whole entry, the tested form may be a part): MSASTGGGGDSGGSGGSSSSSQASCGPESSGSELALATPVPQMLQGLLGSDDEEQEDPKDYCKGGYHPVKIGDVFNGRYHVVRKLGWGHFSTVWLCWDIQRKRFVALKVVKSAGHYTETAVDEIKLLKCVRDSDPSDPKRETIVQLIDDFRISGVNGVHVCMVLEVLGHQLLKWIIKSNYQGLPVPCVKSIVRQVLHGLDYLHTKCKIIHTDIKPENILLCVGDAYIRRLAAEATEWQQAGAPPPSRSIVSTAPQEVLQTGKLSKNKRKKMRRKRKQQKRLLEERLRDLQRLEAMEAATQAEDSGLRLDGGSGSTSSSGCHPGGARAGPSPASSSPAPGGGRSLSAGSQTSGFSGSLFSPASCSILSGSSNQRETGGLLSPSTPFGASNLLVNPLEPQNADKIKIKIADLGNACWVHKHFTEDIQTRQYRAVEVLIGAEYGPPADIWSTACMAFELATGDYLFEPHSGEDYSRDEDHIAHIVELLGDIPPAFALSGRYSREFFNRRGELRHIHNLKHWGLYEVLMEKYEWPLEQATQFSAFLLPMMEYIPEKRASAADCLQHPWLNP

[3] = biological target: Activin receptor type-2B (Homo sapiens) (UniProt Q13705); assay: Inhibition of wild-type human ACVR2B (H169 to D504 residues) expressed in bacterial expression system assessed as residual activity at 1 uM by Kinomescan method relative to control
[4] = biological target: Phosphatidylinositol 4,5-bisphosphate 3-kinase catalytic subunit delta isoform (Homo sapiens) (UniProt O00329); assay: Inhibition of wild-type human partial length PIK3CD (R108 to Q1044 residues) expressed in mammalian expression system assessed as residual activity at 1 uM by Kinomescan method relative to control
[5] = biological target: Tyrosine-protein kinase Fgr (Homo sapiens) (UniProt P09769); assay: Inhibition of wild-type human partial length FGR (L233 to T529 residues) expressed in bacterial expression system assessed as residual activity at 1 uM by Kinomescan method relative to control
[6] = biological target: Bone morphogenetic protein receptor type-2 (Homo sapiens) (UniProt Q13873); assay: Inhibition of wild-type human partial length BMPR2 (R179 to Q526 residues) expressed in mammalian expression system assessed as residual activity at 1 uM by Kinomescan method relative to control
Bone morphogenetic protein receptor type-2 (Homo sapiens), sequence (Q13873 whole entry, the tested form may be a part): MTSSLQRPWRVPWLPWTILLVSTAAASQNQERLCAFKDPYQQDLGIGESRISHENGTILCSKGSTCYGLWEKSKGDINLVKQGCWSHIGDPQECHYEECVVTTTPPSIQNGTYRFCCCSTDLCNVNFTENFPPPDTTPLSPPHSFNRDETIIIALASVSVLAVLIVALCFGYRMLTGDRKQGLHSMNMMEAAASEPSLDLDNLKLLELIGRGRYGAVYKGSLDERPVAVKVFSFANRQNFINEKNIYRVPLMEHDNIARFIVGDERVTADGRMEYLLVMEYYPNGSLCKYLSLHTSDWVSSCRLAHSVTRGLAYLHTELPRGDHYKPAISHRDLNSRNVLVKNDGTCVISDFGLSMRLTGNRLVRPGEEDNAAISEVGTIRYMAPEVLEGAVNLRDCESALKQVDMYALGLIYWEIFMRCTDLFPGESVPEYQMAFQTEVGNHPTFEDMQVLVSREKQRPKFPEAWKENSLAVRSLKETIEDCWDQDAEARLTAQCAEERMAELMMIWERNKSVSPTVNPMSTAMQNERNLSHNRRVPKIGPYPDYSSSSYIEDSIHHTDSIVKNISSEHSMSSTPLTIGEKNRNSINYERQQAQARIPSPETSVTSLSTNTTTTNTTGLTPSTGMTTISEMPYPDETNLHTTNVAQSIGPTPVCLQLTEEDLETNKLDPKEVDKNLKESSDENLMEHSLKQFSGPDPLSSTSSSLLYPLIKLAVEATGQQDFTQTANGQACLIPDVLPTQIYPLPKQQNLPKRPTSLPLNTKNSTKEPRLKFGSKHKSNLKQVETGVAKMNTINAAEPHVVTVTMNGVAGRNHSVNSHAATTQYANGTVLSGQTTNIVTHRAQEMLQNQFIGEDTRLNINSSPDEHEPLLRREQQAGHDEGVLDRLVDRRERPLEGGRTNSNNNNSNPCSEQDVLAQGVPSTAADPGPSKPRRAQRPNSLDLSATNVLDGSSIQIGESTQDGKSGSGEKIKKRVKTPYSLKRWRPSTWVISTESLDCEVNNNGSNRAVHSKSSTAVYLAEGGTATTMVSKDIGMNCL

[7] = biological target: Serine/threonine-protein kinase OSR1 (Homo sapiens) (UniProt O95747); assay: Inhibition of wild-type human full length OSR1 (M1 to S527 residues) expressed in mammalian expression system assessed as residual activity at 1 uM by Kinomescan method relative to control
[8] = Elimination half-life in Sprague-Dawley rat at 1 mg/kg, iv by LC-MS/MS method; assay type: ADME, organism-based; details: in vivo, read-out: beta t1/2 (converted)
[9] = biological target: Serine/threonine-protein kinase 10 (Homo sapiens) (UniProt O94804); assay: Inhibition of wild-type human partial length LOK (E16 to V314 residues) expressed in bacterial expression system assessed as residual activity at 1 uM by Kinomescan method relative to control
Homo sapiens = species on record: Homo sapiens; assay: Inhibition of human partial length FLT3 ITD/F691L double mutant expressed in bacterial expression system assessed as residual activity at 1 uM by Kinomescan method relative to control
[10] = biological target: Serine/threonine-protein kinase DCLK2 (Homo sapiens) (UniProt Q8N568); assay: Inhibition of wild-type human partial length DCAMKL2 (K273 to V664 residues) expressed in bacterial expression system assessed as residual activity at 1 uM by Kinomescan method relative to control
[11] = biological target: Serine/threonine-protein kinase Nek2 (Homo sapiens) (UniProt P51955); assay: Inhibition of wild-type human partial length NEK2 (M1 to K309 residues) expressed in bacterial expression system assessed as residual activity at 1 uM by Kinomescan method relative to control
Serine/threonine-protein kinase Nek2 (Homo sapiens), sequence (P51955 whole entry, the tested form may be a part): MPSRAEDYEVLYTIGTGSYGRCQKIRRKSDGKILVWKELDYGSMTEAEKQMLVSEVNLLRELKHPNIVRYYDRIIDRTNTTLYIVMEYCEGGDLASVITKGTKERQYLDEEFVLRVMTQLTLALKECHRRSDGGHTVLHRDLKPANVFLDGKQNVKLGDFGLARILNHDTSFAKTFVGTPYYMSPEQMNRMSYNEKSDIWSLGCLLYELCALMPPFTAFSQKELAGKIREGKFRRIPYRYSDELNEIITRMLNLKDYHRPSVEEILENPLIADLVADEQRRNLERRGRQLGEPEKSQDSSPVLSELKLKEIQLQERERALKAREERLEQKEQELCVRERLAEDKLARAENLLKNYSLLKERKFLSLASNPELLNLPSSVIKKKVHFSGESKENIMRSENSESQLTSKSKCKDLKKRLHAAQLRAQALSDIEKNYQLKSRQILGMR

[12] = test system: Epidermal growth factor receptor (Homo sapiens), P00533 [UNDEFINED MUTATION]; assay: Inhibition of human partial length EGFR E746-A750del mutant expressed in bacterial expression system assessed as residual activity at 1 uM by Kinomescan method relative to control
Epidermal growth factor receptor (Homo sapiens), P00533 [UNDEFINED MUTATION], sequence (P00533 whole entry, looked up, stated change not applied, the tested form may be a part): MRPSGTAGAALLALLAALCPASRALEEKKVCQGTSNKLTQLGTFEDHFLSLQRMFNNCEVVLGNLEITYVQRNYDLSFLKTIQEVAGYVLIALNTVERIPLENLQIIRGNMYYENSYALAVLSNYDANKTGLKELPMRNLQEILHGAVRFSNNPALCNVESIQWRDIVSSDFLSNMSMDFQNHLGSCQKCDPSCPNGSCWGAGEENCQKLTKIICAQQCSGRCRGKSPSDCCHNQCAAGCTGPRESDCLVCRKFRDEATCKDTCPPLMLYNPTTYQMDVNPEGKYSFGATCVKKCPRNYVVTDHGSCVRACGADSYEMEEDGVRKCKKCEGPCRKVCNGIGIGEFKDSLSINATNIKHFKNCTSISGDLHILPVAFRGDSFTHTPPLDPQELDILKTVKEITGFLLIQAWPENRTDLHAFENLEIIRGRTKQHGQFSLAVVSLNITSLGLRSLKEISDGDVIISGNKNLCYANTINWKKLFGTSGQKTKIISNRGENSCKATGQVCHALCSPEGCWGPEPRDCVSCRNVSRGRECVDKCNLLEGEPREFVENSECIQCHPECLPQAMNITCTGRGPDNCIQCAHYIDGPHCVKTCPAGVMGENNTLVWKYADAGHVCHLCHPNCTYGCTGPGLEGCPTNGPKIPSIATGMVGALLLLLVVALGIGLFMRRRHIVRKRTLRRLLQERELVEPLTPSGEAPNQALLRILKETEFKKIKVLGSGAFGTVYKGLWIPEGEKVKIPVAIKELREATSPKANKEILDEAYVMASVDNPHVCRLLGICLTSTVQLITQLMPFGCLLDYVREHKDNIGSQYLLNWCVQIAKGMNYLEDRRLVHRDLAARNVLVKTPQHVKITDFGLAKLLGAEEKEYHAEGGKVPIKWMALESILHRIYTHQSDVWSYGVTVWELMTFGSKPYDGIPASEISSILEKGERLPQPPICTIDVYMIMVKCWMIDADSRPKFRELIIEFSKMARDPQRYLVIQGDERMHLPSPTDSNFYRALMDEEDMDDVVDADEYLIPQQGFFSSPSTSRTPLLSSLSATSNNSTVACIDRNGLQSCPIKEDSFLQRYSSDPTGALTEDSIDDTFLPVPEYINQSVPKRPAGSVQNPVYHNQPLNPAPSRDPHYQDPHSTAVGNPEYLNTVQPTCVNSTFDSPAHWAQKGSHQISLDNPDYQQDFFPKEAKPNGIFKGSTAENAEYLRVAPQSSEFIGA

[13] = biological target: Phosphatidylinositol 4-kinase beta (Homo sapiens) (UniProt Q9UBF8); assay: Inhibition of wild-type human full length PIK4CB (M1 to M828 residues) expressed in mammalian expression system assessed as residual activity at 1 uM by Kinomescan method relative to control
[14] = biological target: Cyclin-dependent kinase-like 5 (Homo sapiens) (UniProt O76039); assay: Inhibition of wild-type human partial length CDKL5 (M1 to S337 residues) expressed in mammalian expression system assessed as residual activity at 1 uM by Kinomescan method relative to control
[15] = biological target: Rhodopsin kinase GRK7 (Homo sapiens) (UniProt Q8WTQ7); assay: Inhibition of wild-type human full length GRK7 (M1 to L553 residues) expressed in mammalian expression system assessed as residual activity at 1 uM by Kinomescan method relative to control
Rhodopsin kinase GRK7 (Homo sapiens), sequence (Q8WTQ7 whole entry, the tested form may be a part): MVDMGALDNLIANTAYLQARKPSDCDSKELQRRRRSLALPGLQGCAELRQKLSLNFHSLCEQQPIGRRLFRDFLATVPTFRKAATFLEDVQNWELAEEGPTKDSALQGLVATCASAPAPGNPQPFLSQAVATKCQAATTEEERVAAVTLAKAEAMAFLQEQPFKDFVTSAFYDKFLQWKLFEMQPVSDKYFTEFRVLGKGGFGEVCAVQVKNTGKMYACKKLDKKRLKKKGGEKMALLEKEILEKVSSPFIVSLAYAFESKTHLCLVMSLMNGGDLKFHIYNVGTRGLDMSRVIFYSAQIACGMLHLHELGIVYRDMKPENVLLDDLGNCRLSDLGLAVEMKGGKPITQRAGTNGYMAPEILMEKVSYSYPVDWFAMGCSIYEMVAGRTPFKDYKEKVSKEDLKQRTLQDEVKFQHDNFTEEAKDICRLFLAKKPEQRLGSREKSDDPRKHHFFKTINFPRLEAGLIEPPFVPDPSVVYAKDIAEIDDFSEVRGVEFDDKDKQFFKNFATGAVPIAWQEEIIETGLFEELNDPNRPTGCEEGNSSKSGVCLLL

[16] = biological target: Mitogen-activated protein kinase kinase kinase 15 (Homo sapiens) (UniProt Q6ZN16); assay: Inhibition of wild-type human partial length MAP3K15 (T625 to L932 residues) expressed in mammalian expression system assessed as residual activity at 1 uM by Kinomescan method relative to control
[17] = test system: Epidermal growth factor receptor (Homo sapiens), P00533 [UNDEFINED MUTATION]; assay: Inhibition of human partial length EGFR S752-I759del mutant expressed in bacterial expression system assessed as residual activity at 1 uM by Kinomescan method relative to control
[18] = AUC (0 to infinity) in Sprague-Dawley rat at 1 mg/kg, iv by LC-MS/MS method; assay type: ADME, organism-based; set-up: dose 1 mg/kg, route intravenous, time infinity; details: in vivo
[19] = biological target: Mitogen-activated protein kinase kinase kinase kinase 2 (Homo sapiens) (UniProt Q12851); assay: Inhibition of wild-type human partial length MAP4K2 (M1 to G318 residues) expressed in mammalian expression system assessed as residual activity at 1 uM by Kinomescan method relative to control
[20] = biological target: Mitogen-activated protein kinase kinase kinase kinase 4 (Homo sapiens) (UniProt O95819); assay: Inhibition of wild-type human partial length MAP4K4 (M1 to R310 residues) expressed in bacterial expression system assessed as residual activity at 1 uM by Kinomescan method relative to control
Mitogen-activated protein kinase kinase kinase kinase 4 (Homo sapiens), sequence (O95819 2-1239 limits assumed): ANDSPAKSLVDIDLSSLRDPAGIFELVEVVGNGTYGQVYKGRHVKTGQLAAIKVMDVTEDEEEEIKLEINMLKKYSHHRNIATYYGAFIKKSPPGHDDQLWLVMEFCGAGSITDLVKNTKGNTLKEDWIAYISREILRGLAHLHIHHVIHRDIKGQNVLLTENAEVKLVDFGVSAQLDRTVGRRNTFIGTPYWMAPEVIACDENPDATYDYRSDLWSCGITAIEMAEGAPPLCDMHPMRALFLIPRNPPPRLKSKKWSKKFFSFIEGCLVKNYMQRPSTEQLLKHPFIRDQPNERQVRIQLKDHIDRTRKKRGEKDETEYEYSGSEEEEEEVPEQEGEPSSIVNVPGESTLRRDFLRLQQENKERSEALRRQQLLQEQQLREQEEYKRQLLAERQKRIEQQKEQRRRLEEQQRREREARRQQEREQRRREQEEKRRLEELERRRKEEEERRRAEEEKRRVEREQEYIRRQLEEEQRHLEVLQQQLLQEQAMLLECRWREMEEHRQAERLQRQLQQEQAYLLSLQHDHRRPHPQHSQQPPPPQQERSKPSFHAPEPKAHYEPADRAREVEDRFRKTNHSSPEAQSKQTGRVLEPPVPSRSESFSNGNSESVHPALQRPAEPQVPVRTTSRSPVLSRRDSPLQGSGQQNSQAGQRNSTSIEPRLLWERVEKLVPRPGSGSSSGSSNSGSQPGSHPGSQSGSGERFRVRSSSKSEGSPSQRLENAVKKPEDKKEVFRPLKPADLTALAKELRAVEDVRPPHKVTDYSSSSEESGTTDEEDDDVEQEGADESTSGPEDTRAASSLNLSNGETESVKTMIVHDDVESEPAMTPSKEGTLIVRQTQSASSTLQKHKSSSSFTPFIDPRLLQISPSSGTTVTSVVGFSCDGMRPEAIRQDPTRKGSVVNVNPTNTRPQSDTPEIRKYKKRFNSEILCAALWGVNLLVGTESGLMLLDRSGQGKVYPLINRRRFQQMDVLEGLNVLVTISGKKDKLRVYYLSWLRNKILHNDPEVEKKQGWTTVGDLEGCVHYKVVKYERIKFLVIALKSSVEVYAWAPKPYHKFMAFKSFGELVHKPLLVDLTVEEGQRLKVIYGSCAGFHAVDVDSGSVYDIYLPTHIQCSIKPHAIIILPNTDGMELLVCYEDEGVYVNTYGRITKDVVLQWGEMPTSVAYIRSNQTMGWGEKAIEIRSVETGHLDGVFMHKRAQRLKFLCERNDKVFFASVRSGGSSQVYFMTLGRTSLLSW

[21] = biological target: Serine/threonine-protein kinase MARK2 (Homo sapiens) (UniProt Q7KZI7); assay: Inhibition of wild-type human partial length MARK2 (M1 to R450 residues) expressed in bacterial expression system assessed as residual activity at 1 uM by Kinomescan method relative to control
[22] = test system: eIF-2-alpha kinase GCN2 (Homo sapiens), Q9P2K8 [S808G]; assay: Inhibition of […] human partial length GCN2 kinase domain 2 (R585 to T1018 residues) S808G mutant expressed in bacterial expression system assessed as residual activity at 1 uM by Kinomescan method relative to control
[23] = biological target: Discoidin domain-containing receptor 2 (Homo sapiens) (UniProt Q16832); assay: Inhibition of wild-type human partial length DDR2 (V555 to E855 residues) expressed in mammalian expression system assessed as residual activity at 1 uM by Kinomescan method relative to control
[24] = biological target: Ephrin type-A receptor 5 (Homo sapiens) (UniProt P54756); assay: Inhibition of wild-type human partial length EPHA5 (T627 to V930 residues) expressed in bacterial expression system assessed as residual activity at 1 uM by Kinomescan method relative to control
[25] = biological target: Receptor tyrosine-protein kinase erbB-2 (Homo sapiens) (UniProt P04626); assay: Inhibition of wild-type human partial length ERBB2 (K646 to V1225 residues) expressed in mammalian expression system assessed as residual activity at 1 uM by Kinomescan method relative to control

For `C=CC(=O)Nc1cc(Nc2cc(-c3cccc(NC(=O)c4ccc(C(C)(C)C)cc4)c3C)cn(C)c2=O)ccc1C(=O)N1CCOCC1`, the Activity [1] was 100%, the Activity [2] was 81% and the Activity [3] was 73%. It also gave an Activity [4] of 100%, an Activity [5] of 77% and an Activity [6] of 93%. For the same molecule, the Activity [7] was 100%, the half-life [8] was 13.8 min and the Activity [9] was 94%. The Activity (Homo sapiens) was 87%, the Activity [10] was 89% and the Activity [11] was 99%. For the same molecule, the Activity [12] was 80%, the Activity [13] was 90% and the Activity [14] was 100%. The Activity [15] was 94%, the Activity [16] was 99% and the Activity [17] was 97%. It also gave an AUC(0-inf) [18] of 183 ng·h/mL, an Activity [19] of 94% and an Activity [20] of 86%. It also gave an Activity [21] of 99%, an Activity [22] of 100% and an Activity [23] of 93%. The Activity [24] was 92% and the Activity [25] was 97%.
